Measured values from ChEMBL document CHEMBL1144390, “Equipotent activity in both enantiomers of a series of ketopiperazine-based renin inhibitors” (Bioorg Med Chem Lett, 2005).

molecular target: T1, Renin (Homo sapiens, UniProt P00797); assay: Concentration required to inhibit renin activity by 50%
T1 sequence (P00797 whole entry): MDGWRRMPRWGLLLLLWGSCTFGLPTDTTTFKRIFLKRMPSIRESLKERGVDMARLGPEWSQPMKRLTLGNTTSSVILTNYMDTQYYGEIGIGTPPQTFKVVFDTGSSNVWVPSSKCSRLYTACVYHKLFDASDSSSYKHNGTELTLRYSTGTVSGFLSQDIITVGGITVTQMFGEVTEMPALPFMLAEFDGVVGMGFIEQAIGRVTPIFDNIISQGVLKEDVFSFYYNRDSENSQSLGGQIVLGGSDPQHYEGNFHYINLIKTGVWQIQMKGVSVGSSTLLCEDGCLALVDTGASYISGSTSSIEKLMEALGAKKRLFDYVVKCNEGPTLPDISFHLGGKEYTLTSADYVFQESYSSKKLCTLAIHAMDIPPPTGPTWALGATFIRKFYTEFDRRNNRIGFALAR

| Compound | IC50 [nM] |
| --- | --- |
| COCCCN1C(=O)CCc2ccc(OC[C@@H]3CNCC(=O)N3c3ccc(OCCCOCc4ccccc4OC)cc3)cc21 | 17 |
| COCCCN1C(=O)CCc2ccc(OC[C@H]3CNCC(=O)N3c3ccc(OCCCOCc4ccccc4OC)cc3)cc21 | 7 |
| COc1ccccc1COCCCOc1ccc(N2C(=O)CNC[C@@H]2COc2ccc3c(c2)NCCC3)cc1 | 120 |
| COc1ccccc1COCCCOc1ccc(N2C(=O)CNC[C@H]2COc2ccc3cccnc3c2)cc1 | 860 |
| COc1ccccc1COCCCOc1ccc(N2C(=O)CNC[C@H]2COc2ccc3c(c2)N(CCO)CCC3)cc1 | 33 |
| COc1ccccc1COCCCOc1ccc(N2C(=O)CNC[C@H]2COc2ccc3c(c2)NCCC3)cc1 | 23 |
| COc1ccccc1COCCCOc1ccc(N2C(=O)CNC[C@H]2COc2ccc3c(c2)N(CCCO)CCC3)cc1 | 35 |
